Reference: the NIST ThermoML archive (doi:10.1016/j.jct.2005.03.019)

Test: xn = mol fraction of the nth substance listed
Conditions: 101 kPa, Liquid, Vibrating tube method

C=Cc1ccccc1 [styrene] + CC1COC(=O)O1
Conditions	mass density [kg/m3]
293.15 K, x1 = 0.0537	1180.1
293.15 K, x1 = 0.1389	1149.3
293.15 K, x1 = 0.1832	1134
293.15 K, x1 = 0.2341	1116.8
293.15 K, x1 = 0.294	1097.3
293.15 K, x1 = 0.3867	1068.4
293.15 K, x1 = 0.4379	1053.1
293.15 K, x1 = 0.5089	1032.5
293.15 K, x1 = 0.5799	1012.6
293.15 K, x1 = 0.6328	998.3
293.15 K, x1 = 0.6978	981.1
293.15 K, x1 = 0.7534	966.7
293.15 K, x1 = 0.8136	951.5
293.15 K, x1 = 0.8738	936.6
293.15 K, x1 = 0.9348	921.7
293.15 K, x1 = 1	906
303.15 K, x1 = 0.0613	1158.4
303.15 K, x1 = 0.1289	1134.8
303.15 K, x1 = 0.1743	1119.6
303.15 K, x1 = 0.2389	1098.5
303.15 K, x1 = 0.2976	1080.1
303.15 K, x1 = 0.3681	1058.8
303.15 K, x1 = 0.4178	1044.3
303.15 K, x1 = 0.4622	1031.7
303.15 K, x1 = 0.5239	1014.6
303.15 K, x1 = 0.5919	996.3
303.15 K, x1 = 0.6521	980.7
303.15 K, x1 = 0.7244	962.4
303.15 K, x1 = 0.7932	945.4
303.15 K, x1 = 0.8472	932.4
303.15 K, x1 = 0.9247	914
303.15 K, x1 = 1	896.4
313.15 K, x1 = 0.0473	1144.7
313.15 K, x1 = 0.1255	1118.3
313.15 K, x1 = 0.1922	1096.7
313.15 K, x1 = 0.2467	1079.7
313.15 K, x1 = 0.2844	1068.3
313.15 K, x1 = 0.3388	1052.2
313.15 K, x1 = 0.4032	1033.8
313.15 K, x1 = 0.4789	1013
313.15 K, x1 = 0.5376	997.4
313.15 K, x1 = 0.6198	976.4
313.15 K, x1 = 0.6638	965.4
313.15 K, x1 = 0.7398	946.9
313.15 K, x1 = 0.8133	929.5
313.15 K, x1 = 0.8756	915.1
313.15 K, x1 = 0.9456	899.1
313.15 K, x1 = 1	886.9
323.15 K, x1 = 0.0598	1122.3
323.15 K, x1 = 0.1431	1095.3
323.15 K, x1 = 0.1846	1082.4
323.15 K, x1 = 0.2572	1060.6
323.15 K, x1 = 0.3312	1039.2
323.15 K, x1 = 0.3841	1024.5
323.15 K, x1 = 0.4423	1008.8
323.15 K, x1 = 0.4928	995.6
323.15 K, x1 = 0.5634	977.7
323.15 K, x1 = 0.6143	965.1
323.15 K, x1 = 0.6635	953.3
323.15 K, x1 = 0.7187	940.3
323.15 K, x1 = 0.7749	927.3
323.15 K, x1 = 0.8353	913.6
323.15 K, x1 = 0.9244	893.8
323.15 K, x1 = 1	877.3
333.15 K, x1 = 0.0534	1106.6
333.15 K, x1 = 0.113	1087.7
333.15 K, x1 = 0.1682	1070.9
333.15 K, x1 = 0.2134	1057.5
333.15 K, x1 = 0.2843	1037.2
333.15 K, x1 = 0.3587	1016.8
333.15 K, x1 = 0.4238	999.7
333.15 K, x1 = 0.479	985.6
333.15 K, x1 = 0.5359	971.5
333.15 K, x1 = 0.5831	960.1
333.15 K, x1 = 0.6811	937.2
333.15 K, x1 = 0.7529	920.9
333.15 K, x1 = 0.8243	905.2
333.15 K, x1 = 0.8871	891.7
333.15 K, x1 = 0.9424	879.9
333.15 K, x1 = 1	867.8
343.15 K, x1 = 0.0648	1085.6
343.15 K, x1 = 0.1198	1068.9
343.15 K, x1 = 0.1823	1050.6
343.15 K, x1 = 0.2398	1034.3
343.15 K, x1 = 0.318	1013
343.15 K, x1 = 0.3832	996
343.15 K, x1 = 0.4429	981
343.15 K, x1 = 0.5138	963.8
343.15 K, x1 = 0.5824	947.6
343.15 K, x1 = 0.6529	931.6
343.15 K, x1 = 0.7039	920.3
343.15 K, x1 = 0.7735	905.2
343.15 K, x1 = 0.8423	890.7
343.15 K, x1 = 0.8814	882.5
343.15 K, x1 = 0.9476	868.9
343.15 K, x1 = 1	858.2
353.15 K, x1 = 0.0621	1069.6
353.15 K, x1 = 0.1257	1051
353.15 K, x1 = 0.1644	1040
353.15 K, x1 = 0.2312	1021.6
353.15 K, x1 = 0.3042	1002.2
353.15 K, x1 = 0.3718	985
353.15 K, x1 = 0.4423	967.7
353.15 K, x1 = 0.5021	953.5
353.15 K, x1 = 0.5539	941.6
353.15 K, x1 = 0.6243	925.9
353.15 K, x1 = 0.6912	911.4
353.15 K, x1 = 0.752	898.5
353.15 K, x1 = 0.8132	885.9
353.15 K, x1 = 0.8642	875.5
353.15 K, x1 = 0.9248	863.4
353.15 K, x1 = 1	848.6
